Structures can show the parent of a compound that is named as a salt.
Tests used:
[1] = system: NIH 3T3 cells transformed by the T24 activated human H-ras gene; experiment: Ras-transformed cell phenotype reversion assay; assay type: cell-based, mouse; conditions: cell counts after 72 hours proliferation, corrected for initial input of 200,000 cells
Description: Insertion of activated oncogenes such as the mutant ras gene into mouse NIH 3T3 cells converts the cells to a transformed phenotype. The cells become tumorigenic, display anchorage independent growth in semi-solid medium and lose contact inhibition. Loss of contact inhibition produces cell cultures which no longer form uniform monolayers. Rather, the cells pile up into multicellular nodules and grow to very high saturation densities in plastic tissue culture dishes. Agents such as protein farnesyl transferase inhibitors which revert the ras transformed phenotype restore the uniform monolayer growth pattern to cells in culture. This reversion is easily monitored by counting the number of cells in tissue culture plates. Transformed cells will achieve higher cell numbers than cells which have reverted to an untransformed phenotype. Compounds which revert the transformed phenotype should produce antitumor effects in tumors bearing ras gene mutations.
Compounds are screened in tissue culture in NIH 3T3 cells transformed by the T24 activated human H-ras gene. Cells are seeded at an initial density of 200,000 cells per well (9.6 cm^2 surface area) in six-well cluster tissue culture plates. Test compounds are immediately added to 3.0 ml cell growth medium in a 3.0 μl volume of DMSO, with a final concentration of DMSO in the cell growth medium of 0.1%. The test compounds are run at concentrations of 5, 10, 50, 100, and 500 nM along with a DMSO treated vehicle control. (In case a high activity is observed at 5 nM, the test compound is tested at even lower concentrations.) The cells are allowed to proliferate for 72 hours. Then the cells are detached in 1.0 ml trypsin-EDTA cell dissociation medium and counted on a Coulter particle counter.
Cell numbers expressed as cells per well are measured using a Coulter Particle Counter.
All cell counts were corrected for the initial cell input density by subtracting 200,000.
Control cell counts=[cell counts from cells incubated with DMSO vehicle −200,000].
Test compound cell counts=[cell counts from cells incubated with test compound −200,000]. [formula]
IC50 (i.e. the test compound concentration required to inhibit enzyme activity by 50%) is calculated if sufficient data are available, summarized in table 11.

[2] = biological target: T1, Human farnesyl protein transferase (Homo sapiens, UniProt P49354+P49356); experiment: In vitro assay for inhibition of farnesyl protein transferase (scintillation proximity assay); assay type: biochemical; conditions: concentration producing 50% inhibition of enzyme activity; [3H]-farnesylpyrophosphate and biotinylated lamin B peptide substrates, 60 min at 37° C.
T1 construct: grown as monolayer cell cultures were used as a source of human enzyme; endogenous in cells; host or cells: KHOS (Kirsten virus transformed human osteosarcoma) cells, grown as solid tumors in nude mice or as monolayer cultures; 30-50% ammonium sulfate fraction, then Q Fast Flow Sepharose
Protocol: Human farnesyl protein transferase was prepared essentially as described (Y. Reiss et al., Methods: A Companion to Methods in Enzymology vol 1, 241-245, 1990). Kirsten virus transformed human osteosarcoma (KHOS) cells (American Type Culture Collection, Rockville, Md., USA) grown as solid tumors in nude mice or grown as monolayer cell cultures were used as a source of human enzyme. Briefly, cells or tumors were homogenized in buffer containing 50 mM Tris, 1 mM EDTA, 1 mM EGTA and 0.2 mM phenylmethylsulfonylfluoride (pH 7.5). The homogenates were centrifuged 28,000×g for 60 min and the supernatants collected. A 30-50% ammonium sulfate fraction was prepared, and the resulting precipitate was resuspended in a small (10 to 20 ml) volume of dialysis buffer containing 20 mM Tris 1 mM dithiothreitol and 20 μM ZnCl2. The ammonium sulfate fraction was dialyzed overnight against two changes of the same buffer. The dialyzed material was applied to a 10×1 cm Q Fast Flow Sepharose (Pharmacia LKB Biotechnology Inc., Piscataway, N.J., USA) which had been preequilibrated with 100 ml of dialysis buffer supplemented with 0.05 M NaCl. The column was washed with an additional 50 ml of dialysis buffer plus 0.05 M NaCl followed by a gradient from 0.05 M to 0.25 M NaCl prepared in dialysis buffer. The enzyme activity was eluted with a linear gradient of 0.25 to 1.0 M NaCl prepared in the dialysis buffer. Fractions containing 4 to 5 ml volumes of column eluate were collected and analyzed for farnesyl protein transferase activity. Fractions with enzyme activity were pooled and supplemented with 100 μM ZnCl2. Enzyme samples were stored frozen at −70° C.
The activity of farnesyl protein transferase was measured using the Farnesyl Transferase [^3H] Scintillation Proximity Assay (Amersham International plc., England) under the conditions specified by the manufacturer. To assay for inhibitors of the enzyme, 0.20 μCi of the [^3H]-famesylpyrophosphate substrate and the biotinylated lamin B peptide substrate (biotin-YRASNRSCAIM) were mixed with test compounds in a reaction buffer consisting of 50 mM HEPES, 30 mM MgCl2, 20 mM KCl, 5 mM dithiothreitol, 0.01% Triton X-100. Test compounds were delivered in a 10 μl volume of dimethylsulfoxide (DMSO) to achieve concentrations of 1 and 10 μg/ml in a final volume of 100 μl. The reaction mixture was warmed to 37° C. The enzyme reaction was started by adding 20 μl of diluted human farnesyl protein transferase. Sufficient enzyme preparation was added to produce between 4000 to 15000 cpm of reaction product during the 60 min of reaction incubation at 37° C. Reactions were terminated by the addition of STOP/scintillation proximity bead reagent (Amersham). The reaction product [^3H]-farnesyl-(Cys)-biotin lamin B peptide was captured on the streptavidin linked scintillation proximity bead. The amount of [^3H]-farnesyl-(Cys)-biotin lamin B peptide synthesized in the presence or absence of test compounds was quantified as cpm by counting on a Wallac Model 1480 Microbeta Liquid Scintillation Counter. The cpm of product was considered to be farnesyl protein transferase activity. The protein farnesyl transferase activity observed in the presence of test compound was normalized to farnesyl transferase activity in the presence of 10% DMSO and expressed as per cent inhibition. […] The effects of test compounds in these studies were calculated as IC50 (concentration of test compound producing 50% inhibition of enzyme activity) using the LGICV50 computer program written by the Science Information Division of R. W. Johnson Pharmaceutical Research Institute (Spring House, Pa., USA) on a VAX computer.

Structure (SMILES) | IC50 [2] [nM] | IC50 ([1]; NIH3T3) [nM] | IC50 [1] [nM]
CN(C)C(c1ccc(Cl)cc1)(c1ccc2c(c1)c(-c1cccc(Cl)c1)cc(=O)n2C)c1cncn1C (centres unmarked) [Compound 66] | 4 | 19 | 
Cn1cncc1C(O)(c1ccc(Cl)cc1)c1ccc2c(c1)c(-c1cccc(OCCO)c1)cc(=O)n2C (centres unmarked) [Compound 63] | 1 | 53 | 
COCCNC(c1ccc(Cl)cc1)(c1ccc2c(c1)c(-c1cccc(Cl)c1)cc(=O)n2C)c1cncn1C (centres unmarked) [Compound 67] | 5.9 | 51 | 
Cn1cncc1C(N)(c1ccc(Cl)cc1)c1ccc2c(c1)c(-c1cccc(Cl)c1)c(Cl)c(=O)n2C (racemic) [Compound 143, (±)-6-[amino(4-chlorophenyl)(1-methyl-1H-imidazol-5-yl)methyl]-3-chloro-4-(3-chlorophenyl)-1-methyl-2(1H)-quinolinone] |  | 82 | 
Cn1cncc1C(c1ccc(Cl)cc1)c1ccc2c(c1)c(-c1cccc(Cl)c1)cc(=O)n2C (racemic) [Compound 5, (±)-4-(3-chlorophenyl)-6-[(4-chlorophenyl)(1-methyl-1H-imidazol-5-yl)methyl]-1-methyl-2(1H)-quinolinone ethanedioate(1:1).mono-hydrate] | 25 | 32 | 
CCCc1cccc(-c2cc(=O)n(C)c3ccc(C(O)(c4ccc(Cl)cc4)c4cncn4C)cc23)c1 (centres unmarked) [Compound 99] | 1.7 |  | 
Cn1cncc1C(c1ccc(Cl)cc1)c1ccc2c(c1)c(-c1cccc(Cl)c1)cc(=S)n2C (racemic) [Compound 128, (±)-4-(3-chlorophenyl)-6-[(4-chlorophenyl)(1-methyl-1H-imidazol-5-yl)methyl]-1-methyl-2(1H)-quinolinethione] |  | 177 | 
Cn1cncc1C(O)(c1ccc(Cl)cc1)c1ccc2c(c1)c(-c1cccc(Cl)c1)cc(=O)n2C (centres unmarked) [Compound 23, (A)-4-(3-chlorophenyl)-6-[(4-chlorophenyl)-hydroxy(1-methyl-1H-imidazol-5-yl)methyl]-1-methyl-2(1H)-quinolinone ethanedioate (1:1)] |  |  | 395
CNC(c1ccc(Cl)cc1)(c1ccc2c(c1)c(-c1cccc(Cl)c1)cc(=O)n2C)c1cncn1C (racemic) [Compound 61, (±)-4-(3-chlorophenyl)-6-[(4-chlorophenyl)(methylamino)(1-methyl-1H-imidazol-5-yl)methyl]-1-methyl-2(1H)-quinolinone monohydrate] | 1.1 | 310 | 
CCCc1cccc(-c2cc(=O)n(C)c3ccc(C(N)(c4ccc(Cl)cc4)c4cncn4C)cc23)c1 (centres unmarked) [Compound 100] | 0.52 | 11 | 
Cn1cncc1C(O)(c1ccc(Cl)cc1)c1ccc2c(c1)c(-c1cccc(Cl)c1)cc(=O)n2C (centres unmarked) [Compound 24, (B)-4-(3-chlorophenyl)-6-[(4-chlorophenyl)hydroxy(1-methyl-1H-imidazol-5-yl)methyl]-1-methyl-2(1H)-quinolinone ethanedioate(1:1)] | 2.7 | 16 | 
COCC(=O)NC(c1ccc(Cl)cc1)(c1ccc2c(c1)c(-c1cccc(Cl)c1)cc(=O)n2C)c1cncn1C (racemic) [Compound 89, (±)-N-[(4-chlorophenyl)[4-(3-chlorophenyl)-1,2-dihydro-1-methyl-2-oxo-6-quinolinyl](1-methyl-1H-imidazol-5-yl)methyl]-2-methoxyacetamide monohydrochloride] |  | 24 | 
CCc1cccc(-c2cc(=O)n(C)c3ccc(C(O)(c4ccc(Cl)cc4)c4cncn4C)cc23)c1 (centres unmarked) [Compound 97] | 2.9 |  | 
COc1cccc(-c2cc(=O)n(C)c3ccc(C(O)(c4ccc(Cl)cc4)c4cncn4C)cc23)c1 (racemic) [Compound 36, (±)-6-[(4-chlorophenyl)hydroxy(1-methyl-1H-imidazol-5-yl)methyl]-4-(3-methoxyphenyl)-1-methyl-2(1H)-quinolinone] | 2.8 |  | 

The next lines start with results.

IC50 [2] [nM] | Structure (SMILES) | IC50 ([1]; NIH3T3) [nM] | IC50 [1] [nM]
1.6 | Cn1cncc1C(c1ccc(Cl)cc1)c1ccc2[nH]c(=O)cc(-c3cccc(Cl)c3)c2c1 (centres unmarked) [Compound 7] |  | 
10.1 | CCCOc1cccc(-c2cc(=O)n(C)c3ccc(C(O)(c4ccc(Cl)cc4)c4cncn4C)cc23)c1 (centres unmarked) [Compound 37] |  | 
1000 | Cn1c(=O)cc(-c2cccc(Cl)c2)c2cc(C(c3ccc(Cl)cc3)c3c[nH]cn3)ccc21 (centres unmarked) [Compound 45] |  | 
6 | Cn1cncc1C(O)(c1ccc(Cl)cc1)c1ccc2c(c1)c(-c1ccccc1)cc(=O)n2C (centres unmarked) [Compound 1] |  | 
910 | Cn1c(=O)cc(-c2ccccc2)c2cc(C(c3ccc(Cl)cc3)c3c[nH]cn3)ccc21 (centres unmarked) [Compound 42] |  | 
11.6 | Cn1cncc1C(O)(c1ccc(Cl)cc1)c1ccc2c(c1)c(-c1cccc(O)c1)cc(=O)n2C (centres unmarked) [Compound 64] |  | 
3.4 | Cn1cncc1C(CCl)(c1ccc(Cl)cc1)c1ccc2c(c1)c(-c1cccc(Cl)c1)cc(=O)n2C (racemic) [Compound 69, (±)-6-[2-chloro-1-(4-chlorophenyl)-1-(1-methyl-1H-imidazol-5-yl)ethyl]-4-(3-chlorophenyl)-1-methyl-2(1H)-quinolinone ethanedioate (1:1)] | 14 | 
24 | COC(c1ccc(Cl)cc1)(c1ccc2c(c1)c(-c1cccc(Cl)c1)cc(=O)n2C)c1cncn1C (racemic) [Compound 4, (±)-4-(3-chlorophenyl)-6-[(4-chlorophenyl)methoxy(1-methyl-1H-imidazol-5-yl)methyl]-1-methyl-2(1H)-quinolinone ethanedioate(1:1).dihydrate] |  | 
6.4 | CCc1cccc(-c2cc(=O)n(C)c3ccc(C(N)(c4ccc(Cl)cc4)c4cncn4C)cc23)c1 (centres unmarked) [Compound 98] | 15 | 
57 | CCOCCCOC(c1ccc(Cl)cc1)(c1ccc2c(c1)c(-c1cccc(Cl)c1)cc(=O)n2C)c1cncn1C (centres unmarked) [Compound 29] | 345 | 
26 | Cn1cncc1C(CO)(c1ccc(Cl)cc1)c1ccc2c(c1)c(-c1cccc(Cl)c1)cc(=O)n2C (centres unmarked) [Compound 71] | 288 | 
5.7 | CCCOc1cccc(-c2cc(=O)n(C)c3ccc(C(c4ccc(Cl)cc4)c4cncn4C)cc23)c1 (centres unmarked) [Compound 52] |  | 
18.4 | Cn1cncc1C(OCCCO)(c1ccc(Cl)cc1)c1ccc2c(c1)c(-c1cccc(Cl)c1)cc(=O)n2C (centres unmarked) [Compound 15] |  | 

From patent US6420387B1, “Farnesyl protein transferase inhibiting (imidazol-5-yl) methyl-2-quinolinone derivatives” (Janssen Pharmaceutica N.V., priority 1995, dated 2002)
